Measurements published in article PMC3598725, “Transporter engineering for improved tolerance against alkane biofuels in Saccharomyces cerevisiae” (Biotechnology for Biofuels, 2013).

Legend:
ABC2 = biological target: T1, ABC2 (Yarrowia lipolytica, UniProt Q6CBB8); assay: intracellular alkane level by GC, S. cerevisiae expressing transporter vs empty plasmid; assay type: cell-based; conditions: 48 h, whole-cell efflux, indirect
T1 construct: gene YALI0_C20265g; full-length, C-terminal 6xHis tag, pYES2 (GAL1) in S. cerevisiae BY4741; 165 kDa on western blot; plasma membrane
T1 sequence (Q6CBB8 1-1469): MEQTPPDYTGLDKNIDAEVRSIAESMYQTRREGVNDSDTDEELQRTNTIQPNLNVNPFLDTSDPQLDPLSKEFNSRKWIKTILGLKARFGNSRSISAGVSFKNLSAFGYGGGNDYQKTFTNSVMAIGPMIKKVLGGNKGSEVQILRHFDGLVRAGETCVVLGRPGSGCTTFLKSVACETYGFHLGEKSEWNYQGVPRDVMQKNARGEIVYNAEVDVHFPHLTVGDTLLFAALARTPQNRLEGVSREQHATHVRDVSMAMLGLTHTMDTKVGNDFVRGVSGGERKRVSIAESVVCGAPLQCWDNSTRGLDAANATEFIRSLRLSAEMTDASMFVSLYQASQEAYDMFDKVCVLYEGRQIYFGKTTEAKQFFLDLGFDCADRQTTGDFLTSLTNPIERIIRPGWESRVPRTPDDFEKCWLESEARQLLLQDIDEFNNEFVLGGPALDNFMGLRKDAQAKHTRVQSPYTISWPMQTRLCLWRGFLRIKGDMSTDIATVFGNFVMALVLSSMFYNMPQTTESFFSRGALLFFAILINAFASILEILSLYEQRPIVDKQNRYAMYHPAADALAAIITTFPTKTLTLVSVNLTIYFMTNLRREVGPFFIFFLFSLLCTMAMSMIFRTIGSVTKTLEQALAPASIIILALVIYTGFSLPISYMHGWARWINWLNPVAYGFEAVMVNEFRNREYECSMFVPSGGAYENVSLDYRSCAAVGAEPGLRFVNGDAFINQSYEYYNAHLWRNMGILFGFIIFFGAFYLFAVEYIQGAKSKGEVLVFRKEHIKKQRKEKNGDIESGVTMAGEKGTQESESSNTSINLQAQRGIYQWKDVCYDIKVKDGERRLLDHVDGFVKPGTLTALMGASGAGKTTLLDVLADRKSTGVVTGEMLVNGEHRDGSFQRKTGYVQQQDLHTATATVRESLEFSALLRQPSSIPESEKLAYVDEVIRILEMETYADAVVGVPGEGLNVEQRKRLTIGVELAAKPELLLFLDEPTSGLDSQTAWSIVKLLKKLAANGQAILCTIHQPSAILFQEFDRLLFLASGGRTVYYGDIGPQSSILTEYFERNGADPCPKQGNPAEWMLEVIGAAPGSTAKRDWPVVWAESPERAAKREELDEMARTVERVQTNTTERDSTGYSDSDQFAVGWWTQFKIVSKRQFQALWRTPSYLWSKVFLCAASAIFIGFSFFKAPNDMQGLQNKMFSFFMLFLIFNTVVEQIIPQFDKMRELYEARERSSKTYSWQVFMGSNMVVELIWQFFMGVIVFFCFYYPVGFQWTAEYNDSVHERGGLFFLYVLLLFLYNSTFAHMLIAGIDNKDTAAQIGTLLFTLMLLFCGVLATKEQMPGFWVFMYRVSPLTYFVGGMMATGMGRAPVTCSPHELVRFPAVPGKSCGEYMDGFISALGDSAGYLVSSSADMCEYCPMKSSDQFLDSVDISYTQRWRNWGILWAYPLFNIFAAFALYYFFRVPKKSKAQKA

ABC3 = biological target: T2, ABC3 (Yarrowia lipolytica, UniProt Q6CFY4); assay: as above; assay type: cell-based; conditions: 48 h, whole-cell efflux, indirect
T2 construct: gene YALI0_B02544g; full-length, C-terminal 6xHis tag, pYES2 (GAL1) in S. cerevisiae BY4741; 167 kDa on western blot; plasma membrane
T2 sequence (Q6CFY4 1-1485): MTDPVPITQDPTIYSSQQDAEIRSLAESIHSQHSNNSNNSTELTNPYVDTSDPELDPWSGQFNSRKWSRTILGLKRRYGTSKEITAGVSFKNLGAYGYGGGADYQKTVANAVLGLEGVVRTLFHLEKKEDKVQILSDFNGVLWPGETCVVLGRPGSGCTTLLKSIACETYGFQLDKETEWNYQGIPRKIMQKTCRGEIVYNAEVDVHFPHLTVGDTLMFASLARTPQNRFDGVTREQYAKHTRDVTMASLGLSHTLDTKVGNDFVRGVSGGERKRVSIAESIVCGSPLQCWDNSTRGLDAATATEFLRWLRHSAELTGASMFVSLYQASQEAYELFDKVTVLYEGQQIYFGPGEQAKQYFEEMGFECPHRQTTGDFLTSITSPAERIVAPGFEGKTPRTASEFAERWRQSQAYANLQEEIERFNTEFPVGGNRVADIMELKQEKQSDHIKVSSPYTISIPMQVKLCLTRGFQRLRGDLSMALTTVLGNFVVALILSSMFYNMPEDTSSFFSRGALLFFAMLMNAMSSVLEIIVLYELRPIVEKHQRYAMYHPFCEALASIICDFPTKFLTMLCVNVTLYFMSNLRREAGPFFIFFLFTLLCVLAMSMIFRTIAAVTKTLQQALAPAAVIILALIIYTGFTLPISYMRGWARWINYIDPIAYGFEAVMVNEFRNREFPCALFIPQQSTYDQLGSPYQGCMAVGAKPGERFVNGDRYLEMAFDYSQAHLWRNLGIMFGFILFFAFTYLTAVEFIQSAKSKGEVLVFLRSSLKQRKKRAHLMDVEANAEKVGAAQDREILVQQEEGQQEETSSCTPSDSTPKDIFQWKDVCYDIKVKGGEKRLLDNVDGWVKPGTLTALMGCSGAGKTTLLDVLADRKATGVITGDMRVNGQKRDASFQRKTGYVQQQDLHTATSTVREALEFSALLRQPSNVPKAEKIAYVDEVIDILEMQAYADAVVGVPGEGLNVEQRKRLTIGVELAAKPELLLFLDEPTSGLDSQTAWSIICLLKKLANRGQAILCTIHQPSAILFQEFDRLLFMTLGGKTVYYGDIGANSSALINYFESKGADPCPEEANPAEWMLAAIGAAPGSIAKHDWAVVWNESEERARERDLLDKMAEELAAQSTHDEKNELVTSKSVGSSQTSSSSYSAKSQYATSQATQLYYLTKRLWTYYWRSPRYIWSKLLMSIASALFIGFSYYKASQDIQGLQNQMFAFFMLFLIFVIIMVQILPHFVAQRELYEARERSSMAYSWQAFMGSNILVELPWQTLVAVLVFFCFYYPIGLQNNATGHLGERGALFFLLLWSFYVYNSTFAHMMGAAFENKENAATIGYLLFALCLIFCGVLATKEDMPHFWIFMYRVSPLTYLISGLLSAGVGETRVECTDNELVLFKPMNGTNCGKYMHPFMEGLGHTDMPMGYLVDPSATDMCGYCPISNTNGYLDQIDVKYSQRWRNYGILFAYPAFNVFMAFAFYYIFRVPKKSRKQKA

Structure (SMILES)	fold lower intracellular level (ABC2; 20% (vol/vol) undecane)	fold lower intracellular level (ABC3; 20% (vol/vol) undecane)	fold lower intracellular level (ABC2; 0.5% (vol/vol) decane)	fold lower intracellular level (ABC3; 0.5% (vol/vol) decane)
CCCCCCCCCCC [undecane]	~ 30 fold	~ 30 fold	–	–
CCCCCCCCCC [decane]	–	–	~ 5 fold	~ 5 fold
